Measurements published in patent US9833454B2, “Difluoromethoxy compound with low bioactivation potential for the reduction of beta-amyloid production” (BRISTOL-MYERS SQUIBB COMPANY, priority 2014, dated 2017).
Where two headings read alike, the source gives them in different places.

Legend:
[1] = In vitro metabolite elucidation in Aroclor-treated rat liver S9 (with NADPH and GSH); format: in vitro ADME
Protocol: The incubation mixtures (0.5 mL) contained N2-(3-(DIFLUOROMETHOXY)-4-(3-METHYL-1H-1,2,4-TRIAZOL-1-YL)PHENYL)-7-(4-FLUOROPHENYL)-N4,5,5-[…]-6,7-DIHYDRO-5H-CYCLOPENTA[D]PYRIMIDINE-2,4-DIAMINE (10 μM), liver S9 fractions from Aroclor 1254-treated rats (Molecular Toxicology, Boone, N.C.) (2 mg protein/mL), and glutathione (GSH, 5 mM) in a 100 mM potassium phosphate buffer (pH 7.4). The final concentration of acetonitrile in the S9 fraction incubations was 0.5% (v/v). The reactions were initiated by adding β-nicotinamide adenine dinucleotide 2′-phosphate reduced tetrasodium salt (NADPH, final concentration as 1 mM) and the incubations were carried out at 37° C. […] The filtrate was collected in a 96-well plate and evaporated to approximately 25% of the original volume under nitrogen gas, and the remaining aqueous phase was analyzed using high-performance liquid chromatography with ultraviolet (UV) spectroscopic and mass spectrometric detection (LC-UV/MS) under the conditions described in Section 1.2.
Bioanalytical methods were as follows: The LC-UV/MS system consisted of a Waters Acquity binary solvent manager, a sample manager, a photodiode array (PDA) detector, and a Xevo Q-TOF mass spectrometer (Waters Corporation, Milford, Mass.). […] Column effluent was analyzed in-line using a PDA detector followed by the mass spectrometer. […]

[2] = target: 43 receptor and Enzyme panel (all others); test: In vitro safety: 43 receptor and enzyme panel, all others; settings: targets other than A2A, DAT, D1, MAO A, read-out: 43 receptor and Enzyme IC50s, all others
Protocol: A range of off-target receptor binding assays and enzyme assays were carried out using conventional methods available in the art.

CYP2C8 = target: T1, CYP2C8 (Homo sapiens, UniProt P10632); test: Inhibition of CYP enzymes in human liver microsomes (HLM), CYP2C8; format: in vitro ADME
T1 sequence (P10632 1-490): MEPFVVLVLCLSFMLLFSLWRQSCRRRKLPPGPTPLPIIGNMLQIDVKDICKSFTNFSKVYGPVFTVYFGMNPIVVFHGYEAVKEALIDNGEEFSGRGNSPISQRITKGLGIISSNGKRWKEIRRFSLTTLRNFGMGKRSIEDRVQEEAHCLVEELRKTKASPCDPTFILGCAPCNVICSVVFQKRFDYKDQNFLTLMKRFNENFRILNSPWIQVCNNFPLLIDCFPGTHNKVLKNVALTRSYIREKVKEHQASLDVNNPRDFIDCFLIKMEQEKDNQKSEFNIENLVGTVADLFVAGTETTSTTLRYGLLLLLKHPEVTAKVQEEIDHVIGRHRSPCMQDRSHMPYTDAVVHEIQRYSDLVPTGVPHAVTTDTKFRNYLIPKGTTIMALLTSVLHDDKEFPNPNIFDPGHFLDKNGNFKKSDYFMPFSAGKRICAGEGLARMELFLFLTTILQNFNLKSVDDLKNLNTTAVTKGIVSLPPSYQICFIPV

Estimated Percent (%) of The Original Parent Level (P) Based on UV Peak Areas ([1]; 10 μM, 30-minute incubation with NADPH and GSH, UV 300 nm): 76% | GSH Adducts ([1]; NADPH and GSH): No GSH conjugates were detected | IC50 (CYP2C8; HLM, 0 min preincubation, read-out: IC50-0 min 2C8): 4.2 µM | IC50 Ratio 2C8 (CYP2C8; HLM, IC50 shift 0 vs 30 min preincubation (TDI ratio)): 1.9 | IC50 (CYP2C8; IC50-30 min 2C8, HLM, 30 min preincubation with NADPH): 2.2 µM
SMILES: CNc1nc(Nc2ccc(-n3cnc(C)n3)c(OC(F)F)c2)nc2c1C(C)(C)CC2c1ccc(F)cc1 (single isomer, unassigned) [Enantiomer 1, N2-(3-(difluoromethoxy)-4-(3-methyl-1H-1,2,4-triazol-1-yl)phenyl)-7-(4-fluorophenyl)-N4,5,5-trimethyl-6,7-dihydro-5H-cyclopenta[d]pyrimidine-2,4-diamine]
IC50 [2]: > 10 µM
